According to patent US11135310B2, “Gold porphyrin-PEG conjugates and methods of use” (The University of Hong Kong, priority 2015, dated 2021):

Assays:
MIHA = experiment: In vitro cytotoxicity, MTT assay; settings: MIHA; MTT assay, 72 h incubation
NCM460 cells [1] = experiment: Induction of apoptosis, CellEvent Caspase-3/7 Green (microscopy and flow cytometry); settings: NCM460, 2 μM, fluorescence microscopy
A2780adr cells = experiment: Cellular uptake by ICP-MS; type: cell-based, human; settings: 2 μM, 37° C.
Excerpt: Based on the results of previous study on cellular uptake of nanostructures [Davis, M. E. et al. Nat. Rev. Drug Discov. 2008, 7, 771] and the strong dependence of the uptake mechanism of 1 on temperature, K^+ concentration and hypertonic condition (FIG. 3d), nanostructures of 1 likely entered live cells by clathrin-mediated endocytosis.
To rationalize the lower toxicity of NC1 toward MIHA cells, cellular uptake of NC1 by MIHA and cancer cells has been investigated by ICP-MS (FIGS. 3b and 4). The gold contents in A2780 and A2780adr cells were 2.6- and 2.0-fold higher than that in MIHA cells, respectively, after incubation with NC1 for 2 h. […] On the other hand, co-incubation of MIHA cells with 1 and DOX should not lead to significant changes in cellular uptake rate of DOX. […] For NC1, it was less toxic toward MIHA cells as reflected by the apparent “strong antagonism” (Table 3), which should be owing to the decrease of DOX cellular uptake by the encapsulation from the nanostructures of 1, rather than real antagonism from DOX and 1.

HCT116 cells [2] = experiment: Apoptosis by FITC-Annexin V staining, flow cytometry; type: cell-based, human; settings: HCT116, 2 μM, 24 h
Excerpt: (§1) The selective induction of apoptosis of HCT116 cells over NCM460 cells by 1 was further studied using FITC-Annexin V staining. Phosphatidylserine residues, which are located on the cytoplasmic surface of the cell membrane in normal live cells, will be translocated to outer plasma membrane in apoptotic cells. […] The quantity of apoptotic cells stained by FITC-Annexin V after treatment with 1 and Au1a was investigated by flow cytometry.

NCM460 cells [3] = experiment: as above; type: cell-based, human; settings: NCM460, 2 μM, 24 h
Excerpt: as §1

HeLa = experiment: In vitro cytotoxicity, MTT assay; type: cell-based, human
Excerpt: Therefore, it was anticipated that a not too high loading of DOX into nanostructures of 1 could be used for anti-cancer purposes in order to maintain low toxicity toward non-tumorigenic cells. Together with the higher encapsulation efficiency of DOX, NC1 was selected for investigations of the in vitro cytotoxicity. […] The in vitro cytotoxicity of NC1 was also compared to that of the mixture of nanostructures of 1 and DOX. […] The observed cytotoxicity was further evaluated by the combination index (CI), which can describe the effect of drug combination. […] It is shown that dose and effect are interchangeable via defined parameters. This general equation for the single drug effect has been extended to the multiple drug effect equation for n drugs. These equations provide the theoretical basis for the combination index (CI)-isobologram equation that allows quantitative determination of drug interactions, where CI<1, =1, and >1 indicate synergism, additive effect, and antagonism, respectively. [Chou, et al. Pharmacol. Rev. 2006, 58, 621] […] The synergistic effect can originate from different molecular targets and/or mechanism of action of DOX from that of gold(III) porphyrin complexes. […] These different modes of action would allow supra-additive effect on killing HeLa cells by the co-delivery.

CCD-19Lu = experiment: In vitro cytotoxicity, MTT assay; type: cell-based; settings: 72 h incubation
[4] = acute toxicological study, Chem. Commun. 2011, 47, 9554; cited from earlier work
HCT116 cells [5] = experiment: Induction of apoptosis, CellEvent Caspase-3/7 Green (microscopy and flow cytometry); type: cell-based, human; settings: HCT116, 2 μM, fluorescence microscopy
non-tumorigenic cells = experiment: In vitro cytotoxicity, MTT assay, non-tumorigenic cells; type: cell-based; settings: 72 h
A2780cis = experiment: In vitro cytotoxicity, MTT assay; type: cell-based, human
NCM460 = experiment: In vitro cytotoxicity, MTT assay; type: cell-based, human; settings: 72 h incubation
A2780 = experiment: In vitro cytotoxicity, MTT assay; type: cell-based, human
NCI-H460 = experiment: In vitro cytotoxicity, MTT assay; type: cell-based, human
HCT116 cells [6] = experiment: Apoptosis in co-culture cell model of HCT116 and NCM460; type: cell-based, human; settings: 2 μM, 24 h, Caspase-3/7 Green Reagent, flow cytometry
Protocol: (§2) In order to differentiate the two different cell lines, NCM460 cells were pre-treated by blue-emissive CMF2HC dye prior to its co-culture with HCT116 cells. […] On the other hand, the co-culture model treated with 1 for 24 h was stained by FITC-Annexin V and propidium iodide, and imaged by fluorescence microscopy. Green and red fluorescence were primarily observed in cells without showing blue luminescence, i.e. HCT16 cells. […] The results of both fluorescence microscopy and flow cytometry support the high selectivity of 1 on killing colon cancer cells in the co-culture model of cancer and normal cells.
(§3) This co-culture model treated with 1 for 24 h had 25.04 and 5.01% of HCT116 and NCM460 cells, respectively, undergoing apoptosis as determined by Caspase-3/7 Green Reagent staining and flow cytometric analysis. This confirms the preferential induction of apoptosis by 1 of HCT116 cells over NCM460 cells in the co-culture model, regardless of the effect, if any, of the blue emissive CMF2HC dye.

NCM460 cells [7] = experiment: as above; type: cell-based, human; settings: NCM460 in co-culture, 2 μM, 24 h, Caspase-3/7 Green Reagent, flow cytometry
Protocol: as §2, §3

HCT116 = experiment: In vitro cytotoxicity, MTT assay; type: cell-based, human
[8] = IC50 of MIHA cells/IC50 of cancer cells
[9] = IC50 of NCM460 cells/IC50 of cancer cells

Which results are given for C1=Cc2nc1c(-c1ccccc1)c1ccc([n-]1)c(-c1ccccc1)c1nc(c(-c3ccccc3)c3ccc([n-]3)c2-c2ccccc2)C=C1.[Au+3].[Cl-] [Au1a, [Au(TPP)]Cl, reference compound]?
IC50 (MIHA): 0.4 ± 0.07 µM; Incubation time to induction of apoptosis (NCM460 cells [1]): 20 h; Incubation time to large number of apoptotic events (NCM460 cells [1]): 32 h; Incubation time after which amount in A2780adr cells decreases (A2780adr cells): 0.5 h; Percentage of apoptotic cells (HCT116 cells [2]): 39.6%; Percentage of apoptotic cells (NCM460 cells [3]): 39.3%; Toxicity toward cancer cells compared to that toward MIHA cells (HeLa; IC50 of non-tumorigenic MIHA cells/IC50 of cancer cells): 0.6; Toxicity toward cancer cells compared to that toward NCM460 cells (HeLa; IC50 of non-tumorigenic NCM460 cells/IC50 of cancer cells): 0.1; IC50 (HeLa; MTT assay, 72 h incubation, read-out: IC50): 0.66 ± 0.04 µM; Toxicity toward cancer cells compared to that toward MIHA cells (A2780adr; A2780adr, IC50 of MIHA cells/IC50 of cancer cells): 0.4; Toxicity toward cancer cells compared to that toward NCM460 cells (A2780adr; A2780adr, IC50 of NCM460 cells/IC50 of cancer cells): 0.06; IC50 (A2780adr; A2780adr, MTT assay, 72 h incubation): 1.1 ± 0.1 µM; Resistance found in A2780adr (A2780adr; Determined by IC50 of A2780adr cells/IC50 of A2780 cells): 0.11; IC50 (CCD-19Lu): 0.23 ± 0.04 µM; Effective dose to combat tumor growth relative to lethal dose [4]: close to the lethal dose; Incubation time to induction of apoptosis (HCT116 cells [5]): 12 h; Incubation time to significant apoptotic events / large population of apoptotic cells (HCT116 cells [5]): 32 h; IC50 for non-tumorigenic cells (non-tumorigenic cells): submicromolar range; Toxicity toward cancer cells compared to that toward MIHA cells (A2780cis; A2780cis, IC50 of MIHA cells/IC50 of cancer cells): 3.5; Toxicity toward cancer cells compared to that toward NCM460 cells (A2780cis; A2780cis, IC50 of NCM460 cells/IC50 of cancer cells): 0.4; IC50 (A2780cis; A2780cis, MTT assay, 72 h incubation): 0.18 ± 0.01 µM; Resistance found in A2780cis (A2780cis; Determined by IC50 of A2780cis cells/IC50 of A2780 cells): 0.67; IC50 (NCM460): 0.07 ± 0.01 µM; Toxicity toward cancer cells compared to that toward MIHA cells (A2780; [8]): 3.3; Toxicity toward cancer cells compared to that toward NCM460 cells (A2780; [9]): 0.6; IC50 (A2780; MTT assay, 72 h incubation): 0.12 ± 0.02 µM; Toxicity toward cancer cells compared to that toward MIHA cells (NCI-H460; [8]): 1.7; Toxicity toward cancer cells compared to that toward NCM460 cells (NCI-H460; [9]): 0.3; IC50 (NCI-H460; MTT assay, 72 h incubation): 0.23 ± 0.01 µM; Population percentage of apoptotic cells (corrected) (HCT116 cells [6]): 54.6%; Population percentage of apoptotic cells (corrected) (NCM460 cells [7]): 29.3%; IC50 (HCT116; HCT116, MTT assay, 72 h incubation): 0.09 ± 0.02 µM; Toxicity toward cancer cells compared to that toward MIHA cells (HCT116; HCT-116, IC50 of MIHA cells/IC50 of cancer cells): 4.4; Toxicity toward cancer cells compared to that toward NCM460 cells (HCT116; HCT-116, IC50 of NCM460 cells/IC50 of cancer cells): 0.8
